Assay results from ChEMBL document CHEMBL5352401, “Novel cudraisoflavone J derivatives as potent neuroprotective agents for the treatment of Parkinson's disease via the activation of Nrf2/HO-1 signaling” (Eur J Med Chem, 2022).
Calls of active or inactive are those of the source. No cut-off for these calls is given here.

Tests used:
Assay type in all cases: functional, cell-based
[1] = system: PC-12; assay: Cytotoxicity in rat PC-12 cells assessed as cell viability measured at 10 to 30 uM for 24 hrs by MTT assay; conditions: dose 10-30 µM
[2] = system: PC-12; assay: Neuroprotective activity against 6-OHDA-induced cytotoxicity in rat PC-12 cells at 10 to 30 uM for 4 hrs followed by exposure to 6-OHDA measured after 24 hrs by MTT assay; conditions: dose 10-30 µM, time 28.0 hrs
[3] = system: PC-12; assay: Cytotoxicity in rat PC-12 cells assessed as cell viability measured at 30 uM for 24 hrs by MTT assay

COc1ccc(-c2coc3cc(O)c4c(c3c2=O)OC(C)(C)C(O)C4)cc1OC (stereo unspecified)
Activity [1]: inactive | Activity [2]: inactive

COc1ccc(-c2coc3cc(O)c4c(c3c2=O)OC(C)(C)CC4)cc1
Activity [1]: Active

CC(C)Oc1ccc(-c2coc3cc4c(c(OC(C)C)c3c2=O)C=CC(C)(C)O4)cc1
Activity [3]: Active

Cc1cc(-c2coc3cc(O)c4c(c3c2=O)OC(C)(C)C(O)C4)ccc1F (stereo unspecified)
Activity [1]: Active | Activity [2]: inactive

CC1(C)Oc2c(c(O)cc3occ(-c4cc(F)cc(F)c4)c(=O)c23)CC1O (stereo unspecified)
Activity [1]: Active | Activity [2]: inactive

CC1(C)Oc2c(c(O)cc3occ(-c4ccc(OC(F)(F)F)cc4)c(=O)c23)CC1O (stereo unspecified)
Activity [1]: Active

COc1ccc(-c2coc3cc(OC)c4c(c3c2=O)OC(C)(C)C(O)C4)cc1 (stereo unspecified)
Activity [1]: inactive | Activity [2]: inactive

CC1(C)Oc2c(c(O)cc3occ(-c4cccc(C#N)c4)c(=O)c23)CC1O (stereo unspecified)
Activity [1]: Active

CC(C)Oc1ccc(-c2coc3cc4c(c(O)c3c2=O)C=CC(C)(C)O4)cc1
Activity [2]: inactive

C#CCN[C@@H]1CCc2ccccc21
Activity [1]: Active | Activity [2]: Active

CC1(C)Oc2c(c(O)cc3occ(-c4ccc(C(F)(F)F)cc4)c(=O)c23)CC1O (stereo unspecified)
Activity [1]: Active
